# In PMC9516332 (Frontiers in Oncology, 2022):
# What was measured:
# Assay in all cases: Kinase panel profiling at 1 µmol/L (MSA or IMAP), percentage inhibition
# Type in all cases: biochemical
# [1] = biological target: panel of 255 wild-type kinases (Homo sapiens, UniProt P16591); conditions: kinase FER; 1 µmol/L single concentration; read-out: %-inhibition at 1 µmol/L, FER
# [2] = biological target: T1, panel of 255 wild-type kinases (Homo sapiens, UniProt Q9UHD2); conditions: kinase TBK1; 1 µmol/L single concentration; read-out: %-inhibition at 1 µmol/L, TBK1
# T1 sequence (Q9UHD2 1-729): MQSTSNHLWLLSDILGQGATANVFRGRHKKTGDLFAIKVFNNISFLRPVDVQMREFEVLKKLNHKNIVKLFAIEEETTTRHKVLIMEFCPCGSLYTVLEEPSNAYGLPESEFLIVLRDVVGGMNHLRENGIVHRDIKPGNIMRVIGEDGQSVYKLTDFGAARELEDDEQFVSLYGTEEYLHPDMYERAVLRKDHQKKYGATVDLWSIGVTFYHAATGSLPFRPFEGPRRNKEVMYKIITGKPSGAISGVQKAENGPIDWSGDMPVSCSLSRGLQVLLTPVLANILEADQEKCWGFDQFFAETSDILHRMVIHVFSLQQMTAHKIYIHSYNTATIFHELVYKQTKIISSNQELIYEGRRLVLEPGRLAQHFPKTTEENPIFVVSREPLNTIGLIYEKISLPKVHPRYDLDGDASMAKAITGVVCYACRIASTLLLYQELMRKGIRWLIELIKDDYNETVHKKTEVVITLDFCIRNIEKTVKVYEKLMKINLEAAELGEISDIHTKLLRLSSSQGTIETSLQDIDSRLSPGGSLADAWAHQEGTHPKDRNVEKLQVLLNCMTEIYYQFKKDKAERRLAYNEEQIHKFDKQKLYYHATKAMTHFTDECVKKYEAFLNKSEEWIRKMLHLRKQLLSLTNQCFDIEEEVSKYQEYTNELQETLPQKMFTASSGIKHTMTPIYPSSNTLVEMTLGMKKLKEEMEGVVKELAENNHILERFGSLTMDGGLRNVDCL
# [3] = biological target: panel of 255 wild-type kinases (Homo sapiens, UniProt Q96RG2); conditions: PASK; 1 µmol/L single concentration; read-out: %-inhibition, PASK
# [4] = biological target: panel of 255 wild-type kinases (Homo sapiens, UniProt Q9Y5S2); conditions: MRCKβ; 1 µmol/L single concentration; read-out: %-inhibition, MRCKβ
# [5] = biological target: panel of 255 wild-type kinases (Homo sapiens, UniProt Q9Y6E0); conditions: MST3; 1 µmol/L single concentration; read-out: %-inhibition, MST3
# [6] = biological target: T2, panel of 255 wild-type kinases (Homo sapiens, UniProt O15146); conditions: MUSK; 1 µmol/L single concentration; read-out: %-inhibition, MUSK
# T2 sequence (O15146 24-869): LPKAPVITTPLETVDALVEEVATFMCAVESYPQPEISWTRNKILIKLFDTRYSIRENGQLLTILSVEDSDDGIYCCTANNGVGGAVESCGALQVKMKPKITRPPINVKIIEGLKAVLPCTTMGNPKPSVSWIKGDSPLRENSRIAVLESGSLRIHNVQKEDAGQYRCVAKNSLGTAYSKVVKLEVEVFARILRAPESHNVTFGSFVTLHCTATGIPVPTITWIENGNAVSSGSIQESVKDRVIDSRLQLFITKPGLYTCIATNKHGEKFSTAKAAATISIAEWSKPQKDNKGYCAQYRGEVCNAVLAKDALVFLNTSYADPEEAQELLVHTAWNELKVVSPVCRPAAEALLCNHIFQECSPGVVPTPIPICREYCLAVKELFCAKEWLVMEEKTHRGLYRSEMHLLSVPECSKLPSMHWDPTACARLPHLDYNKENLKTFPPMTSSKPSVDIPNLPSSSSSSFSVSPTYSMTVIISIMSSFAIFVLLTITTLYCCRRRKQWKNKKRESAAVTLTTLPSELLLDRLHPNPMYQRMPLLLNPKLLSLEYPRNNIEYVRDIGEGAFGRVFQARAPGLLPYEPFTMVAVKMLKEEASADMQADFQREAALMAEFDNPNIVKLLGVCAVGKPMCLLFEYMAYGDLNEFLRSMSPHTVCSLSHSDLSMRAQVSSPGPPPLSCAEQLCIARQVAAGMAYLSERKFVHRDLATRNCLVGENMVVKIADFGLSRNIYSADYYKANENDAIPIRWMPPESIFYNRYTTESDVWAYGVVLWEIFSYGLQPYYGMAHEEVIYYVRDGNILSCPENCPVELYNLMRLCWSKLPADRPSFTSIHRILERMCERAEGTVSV
# [7] = biological target: panel of 255 wild-type kinases (Homo sapiens, UniProt Q9UM73); conditions: ALK kinase assay; 1 µmol/L single concentration; read-out: %-inhibition ALK
# [8] = biological target: panel of 255 wild-type kinases (Homo sapiens, UniProt Q8IU85); conditions: CaMK1δ kinase assay; 1 µmol/L single concentration; read-out: %-inhibition CaMK1δ
# [9] = biological target: panel of 255 wild-type kinases (Homo sapiens, UniProt P53355); conditions: kinase DAPK1; 1 µmol/L single concentration; read-out: %-inhibition at 1 µmol/L, DAPK1
# [10] = biological target: T3, panel of 255 wild-type kinases (Homo sapiens, UniProt Q96KB5); conditions: kinase PBK; 1 µmol/L single concentration; read-out: %-inhibition at 1 µmol/L, PBK
# T3 sequence (Q96KB5 1-322): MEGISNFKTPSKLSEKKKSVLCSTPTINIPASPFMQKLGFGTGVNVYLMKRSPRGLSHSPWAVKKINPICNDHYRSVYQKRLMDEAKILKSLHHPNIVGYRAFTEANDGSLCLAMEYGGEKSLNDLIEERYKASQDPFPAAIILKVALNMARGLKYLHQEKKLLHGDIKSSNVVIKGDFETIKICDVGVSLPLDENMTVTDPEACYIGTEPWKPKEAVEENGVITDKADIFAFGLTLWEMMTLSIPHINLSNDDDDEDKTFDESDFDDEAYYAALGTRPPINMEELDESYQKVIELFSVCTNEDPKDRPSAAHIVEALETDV
# [11] = biological target: panel of 255 wild-type kinases (Homo sapiens, UniProt Q05397); conditions: kinase FAK; 1 µmol/L single concentration; read-out: %-inhibition at 1 µmol/L, FAK
Compound,inhibition at 1 µM [1],inhibition at 1 µM [2],inhibition at 1 µM [3],inhibition at 1 µM [4],inhibition at 1 µM [5],inhibition at 1 µM [6],inhibition at 1 µM [7],inhibition at 1 µM [8],inhibition at 1 µM [9],inhibition at 1 µM [10],inhibition at 1 µM [11]
Cc1nc(NC(=O)N2CCC[C@H]2C(N)=O)sc1-c1ccnc(C(C)(C)C(F)(F)F)c1 [alpelisib],-1.86%,-2.72%,-2%,-7%,-4.63%,-8%,1.84%,2%,-3%,-1.24%,3.69%
COc1cc2ncnc(Nc3ccc(F)c(Cl)c3)c2cc1NC(=O)/C=C/CN1CCCCC1 [dacomitinib],6.35%,17%,5.35%,8%,27%,22%,17%,1.43%,-7%,-3.28%,-0.575%
CCN1C(=O)N(c2c(F)c(OC)cc(OC)c2F)Cc2cnc3[nH]c(CN4CCOCC4)cc3c21 [pemigatinib],-3%,0%,-5%,-4.4%,80%,2.72%,-1.12%,17%,-4.25%,-5.57%,5.32%
C=CC(=O)N1CCC([C@@H]2CCNc3c(C(N)=O)c(-c4ccc(Oc5ccccc5)cc4)nn32)CC1 [zanubrutinib],0.0146%,0.115%,-2.55%,-1.23%,0.0873%,-1.31%,2.23%,-1.26%,-2%,-4%,13%
Cn1cc(-c2cc3c(N4CCN(c5ncc([C@@](C)(N)c6ccc(F)cc6)cn5)CC4)ncnn3c2)cn1 [avapritinib],1.71%,-1.13%,13%,12%,12%,63%,35%,-4.32%,0.0958%,-3%,-2.5%

# Next, values leading:
inhibition at 1 µM [1],inhibition at 1 µM [2],inhibition at 1 µM [3],inhibition at 1 µM [4],inhibition at 1 µM [5],inhibition at 1 µM [6],inhibition at 1 µM [7],inhibition at 1 µM [8],inhibition at 1 µM [9],inhibition at 1 µM [10],inhibition at 1 µM [11],Compound
35%,12%,-2.29%,-3.65%,6%,10%,4%,9%,26%,-7%,10%,COc1ccc(CN2C3CC2CN(c2ccc(-c4cc(OCC(C)(C)O)cn5ncc(C#N)c45)cn2)C3)cn1 [selpercatinib]
1.35%,-3%,0.181%,2%,10%,2.26%,32%,-3.73%,1.6%,1.21%,-1.17%,Cc1cc(Nc2ncnc3ccc(NC4=NC(C)(C)CO4)cc23)ccc1Oc1ccn2ncnc2c1 [tucatinib]
75%,-0.586%,-2.38%,1.9%,8%,73%,35%,-7.54%,53%,-1.86%,14%,CO[C@]1(C(=O)N[C@@H](C)c2ccc(-n3cc(F)cn3)nc2)CC[C@H](c2nc(C)cc(Nc3cc(C)[nH]n3)n2)CC1 [pralsetinib]
